In one assay the target is T1, CDK9/CycT1 (Homo sapiens, UniProt P50750).
T1 construct: Recombinant full-length His-tagged human CDK9 and CycT1; purchased Life Technologies PV4131; host or cells: insect cells
As to the kind of experiment: CDK9/CycT1 high ATP kinase assay (TR-FRET, 2 mM ATP). Type of assay: biochemical. The conditions noted are these: 2 mM ATP (high ATP); median; read-out: CDK9/CyclinT1, 2 mM ATP (high ATP), IC50 (median). The gist of the method: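 Full-length His-tagged human CDK9/CycT1 (insect cell, ~0.5 μg/mL) preincubated 15 min at 22 °C with compound in Tris pH 8.0, MgCl2, DTT buffer before reaction with biotinylated peptide substrate at high ATP (2 mM).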
(In general: In TR-FRET formats the signal depends on donor and acceptor labels being close together.)

Assay [1] addresses T2, CDK12 (nuclear staining in CAL-120 cells) (Homo sapiens, UniProt Q9NYV4).
T2 construct: endogenous in cells; host or cells: CAL-120 human breast cancer cells (DSMZ ACC 459)
As to the kind of experiment: CDK12 nuclear protein level: immunofluorescence/high content analysis (CAL-120). Type of assay: cell-based. As to conditions: for DC50: CAL-120 cells, 24 h, immunofluorescence, 50% reduction of nuclear CDK12 staining intensity, median, read-out: CDK12 degradation IF, DC50- [mol/l] (median); for (IC50 CDK12 high ATP) to (Degradation DC50 CDK12) ratio: ratio of IC50 CDK12 high ATP kinase assay to DC50 CDK12 degradation (IF, CAL-120). The gist of the method:
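DC50 is the degrader concentration that halves nuclear CDK12 immunofluorescence relative to controls, measured by high-content imaging. CAL-120 cells were exposed to compound for 24 h at 37 °C before PFA fixation, and signal was normalized to DMSO and control wells.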

T2 sequence (Q9NYV4 whole entry): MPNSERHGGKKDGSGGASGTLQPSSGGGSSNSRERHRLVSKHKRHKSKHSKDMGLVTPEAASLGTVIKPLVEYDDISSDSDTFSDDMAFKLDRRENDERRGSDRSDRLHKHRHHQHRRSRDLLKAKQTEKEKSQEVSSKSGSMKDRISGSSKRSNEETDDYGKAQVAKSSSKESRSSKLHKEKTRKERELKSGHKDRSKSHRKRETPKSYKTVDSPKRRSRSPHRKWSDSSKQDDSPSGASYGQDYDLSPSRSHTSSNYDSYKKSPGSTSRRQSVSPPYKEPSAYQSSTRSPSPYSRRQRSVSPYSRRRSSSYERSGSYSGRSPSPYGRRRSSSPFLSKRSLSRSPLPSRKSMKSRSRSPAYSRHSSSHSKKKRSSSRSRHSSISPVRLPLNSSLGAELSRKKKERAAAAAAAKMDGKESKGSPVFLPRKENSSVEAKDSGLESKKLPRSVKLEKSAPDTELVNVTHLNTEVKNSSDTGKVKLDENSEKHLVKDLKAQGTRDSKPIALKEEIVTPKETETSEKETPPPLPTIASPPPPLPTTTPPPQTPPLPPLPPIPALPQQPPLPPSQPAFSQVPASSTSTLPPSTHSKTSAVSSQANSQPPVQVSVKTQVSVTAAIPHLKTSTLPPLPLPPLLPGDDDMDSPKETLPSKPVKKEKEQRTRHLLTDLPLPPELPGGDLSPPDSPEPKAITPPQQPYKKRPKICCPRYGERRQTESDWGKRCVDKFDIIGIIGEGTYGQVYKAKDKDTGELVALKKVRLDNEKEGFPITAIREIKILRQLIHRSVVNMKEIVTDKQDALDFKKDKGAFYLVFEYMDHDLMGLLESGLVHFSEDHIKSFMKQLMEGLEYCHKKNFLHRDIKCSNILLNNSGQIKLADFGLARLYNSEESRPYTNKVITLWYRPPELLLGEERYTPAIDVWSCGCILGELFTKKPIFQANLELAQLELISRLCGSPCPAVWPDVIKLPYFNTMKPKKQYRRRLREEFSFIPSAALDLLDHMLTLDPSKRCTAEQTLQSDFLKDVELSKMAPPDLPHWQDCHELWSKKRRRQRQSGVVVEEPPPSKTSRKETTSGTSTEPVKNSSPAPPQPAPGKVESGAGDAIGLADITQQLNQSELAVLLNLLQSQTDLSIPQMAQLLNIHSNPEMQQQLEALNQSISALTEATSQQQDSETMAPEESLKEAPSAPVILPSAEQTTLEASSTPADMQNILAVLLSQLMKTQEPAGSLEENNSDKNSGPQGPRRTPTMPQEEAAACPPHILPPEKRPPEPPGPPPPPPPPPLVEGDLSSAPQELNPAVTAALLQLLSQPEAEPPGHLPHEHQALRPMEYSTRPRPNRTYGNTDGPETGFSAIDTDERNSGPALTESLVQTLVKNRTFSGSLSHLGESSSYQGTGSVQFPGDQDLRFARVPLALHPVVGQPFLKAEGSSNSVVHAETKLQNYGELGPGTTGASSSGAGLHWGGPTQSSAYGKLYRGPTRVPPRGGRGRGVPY
T2 sequence (O75909 whole entry partner): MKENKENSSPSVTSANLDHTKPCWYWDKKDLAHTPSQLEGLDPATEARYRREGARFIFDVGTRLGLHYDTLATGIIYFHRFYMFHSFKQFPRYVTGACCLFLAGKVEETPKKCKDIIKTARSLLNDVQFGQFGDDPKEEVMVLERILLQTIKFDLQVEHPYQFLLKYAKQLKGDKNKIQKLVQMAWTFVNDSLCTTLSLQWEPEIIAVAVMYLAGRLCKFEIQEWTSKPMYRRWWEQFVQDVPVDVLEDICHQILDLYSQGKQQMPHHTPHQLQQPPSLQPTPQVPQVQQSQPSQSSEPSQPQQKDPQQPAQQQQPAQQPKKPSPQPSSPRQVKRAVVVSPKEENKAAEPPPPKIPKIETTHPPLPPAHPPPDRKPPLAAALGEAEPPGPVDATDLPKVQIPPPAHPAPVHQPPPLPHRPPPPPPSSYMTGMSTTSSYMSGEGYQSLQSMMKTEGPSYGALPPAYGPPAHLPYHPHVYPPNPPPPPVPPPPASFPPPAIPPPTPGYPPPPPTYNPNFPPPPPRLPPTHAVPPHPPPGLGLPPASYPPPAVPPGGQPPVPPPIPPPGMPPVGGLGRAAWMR
T1 sequence (P50750 whole entry): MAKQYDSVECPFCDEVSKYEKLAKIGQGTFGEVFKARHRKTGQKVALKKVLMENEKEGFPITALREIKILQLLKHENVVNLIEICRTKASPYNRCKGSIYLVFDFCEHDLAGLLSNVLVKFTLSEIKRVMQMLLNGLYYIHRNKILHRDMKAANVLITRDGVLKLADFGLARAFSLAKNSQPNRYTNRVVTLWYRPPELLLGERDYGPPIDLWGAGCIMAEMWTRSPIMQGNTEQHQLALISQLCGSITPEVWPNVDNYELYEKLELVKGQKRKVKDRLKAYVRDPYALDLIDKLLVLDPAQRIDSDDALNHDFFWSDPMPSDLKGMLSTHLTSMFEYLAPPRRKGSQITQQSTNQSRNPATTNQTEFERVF
T1 sequence (O60563 whole entry partner): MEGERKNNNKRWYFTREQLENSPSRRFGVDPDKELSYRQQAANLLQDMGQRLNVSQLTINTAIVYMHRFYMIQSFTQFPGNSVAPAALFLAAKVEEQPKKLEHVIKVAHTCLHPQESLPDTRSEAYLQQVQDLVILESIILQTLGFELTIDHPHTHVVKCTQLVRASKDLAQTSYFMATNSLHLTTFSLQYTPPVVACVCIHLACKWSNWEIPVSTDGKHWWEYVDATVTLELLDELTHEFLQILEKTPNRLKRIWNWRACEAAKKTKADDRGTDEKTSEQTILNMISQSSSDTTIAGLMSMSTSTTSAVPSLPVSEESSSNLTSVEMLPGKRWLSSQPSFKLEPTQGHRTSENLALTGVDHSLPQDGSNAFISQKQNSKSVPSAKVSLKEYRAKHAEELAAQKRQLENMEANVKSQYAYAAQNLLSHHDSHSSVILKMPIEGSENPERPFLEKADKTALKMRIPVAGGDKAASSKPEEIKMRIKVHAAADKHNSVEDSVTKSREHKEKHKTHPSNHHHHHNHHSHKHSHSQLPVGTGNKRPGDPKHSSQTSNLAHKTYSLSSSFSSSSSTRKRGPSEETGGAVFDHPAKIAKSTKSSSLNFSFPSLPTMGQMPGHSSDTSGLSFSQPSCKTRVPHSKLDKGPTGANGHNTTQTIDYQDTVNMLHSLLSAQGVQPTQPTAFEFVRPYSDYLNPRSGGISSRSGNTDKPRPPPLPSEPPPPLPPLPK

With `C[C@@H]1CN(c2nc(NCc3nc4c(F)c(F)ccc4[nH]3)n3ncc(C4CC4)c3n2)C[C@H](C)N1` [Example 170, 8-cyclopropyl-N-[(4,5-difluoro-1H-benzimidazol-2-yl)methyl]-2-[(3R,5S)-3,5-dimethylpiperazin-1-yl]pyrazolo[1,5-a][1,3,5]triazin-4-amine], the IC50 on CDK9/CycT1 is greater than 20000 nM. In addition, in assay [1], the DC50 came out at 0.574 nM and the “(IC50 CDK12 high ATP) to (Degradation DC50 CDK12) ratio” value was 5303.
On the same counts, the results for `Fc1ccc2[nH]c(CNc3nc(N4CCOCC4)nc4c(C5CC5)cnn34)nc2c1F` [Example 172, 8-cyclopropyl-N-[(4,5-difluoro-1H-benzimidazol-2-yl)methyl]-2-(morpholin-4-yl)pyrazolo[1,5-a][1,3,5]triazin-4-amine] are greater than 20000 nM, 1.1 nM and 581.
Turning to `Brc1cnn2c(NCc3nc4ccccc4[nH]3)nc(N3CCNC4(CC4)C3)nc12` [Example 176, N-[(1H-benzimidazol-2-yl)methyl]-8-bromo-2-(4,7-diazaspiro[2.5]octan-7-yl)pyrazolo[1,5-a][1,3,5]triazin-4-amine], the IC50 on CDK9/CycT1 was greater than 20000 nM. In assay [1], the DC50 is 1.53 nM and the “(IC50 CDK12 high ATP) to (Degradation DC50 CDK12) ratio” value came out at 1525.
For the molecule `CO[C@H]1CCN(c2nc(NCc3nc4ccccc4[nH]3)n3ncc(Br)c3n2)C1` [Example 222, N-[(1H-benzimidazol-2-yl)methyl]-8-bromo-2-[(3S)-3-methoxypyrrolidin-1-yl]pyrazolo[1,5-a][1,3,5]triazin-4-amine], the IC50 on CDK9/CycT1 was greater than 20000 nM. Further, in assay [1], the DC50 was 48.8 nM and the “(IC50 CDK12 high ATP) to (Degradation DC50 CDK12) ratio” value turned out to be 123.
For `OC1CCN(c2nc(NCc3nc4ccccc4[nH]3)n3ncc(Br)c3n2)CC1` [Example 17, 1-(4-{[(1H-benzimidazol-2-yl)methyl]amino}-8-bromopyrazolo[1,5-a][1,3,5]triazin-2-yl)piperidin-4-ol], at CDK9/CycT1, the IC50 is greater than 20000 nM. Further, in assay [1], the DC50 came out at 5.98 nM and the “(IC50 CDK12 high ATP) to (Degradation DC50 CDK12) ratio” value was found to be 957.
In the case of `CO[C@@H]1CCN(c2nc(NCc3nc4ccccc4[nH]3)n3ncc(Br)c3n2)C1` [Example 223, N-[(1H-benzimidazol-2-yl)methyl]-8-bromo-2-[(3R)-3-methoxypyrrolidin-1-yl]pyrazolo[1,5-a][1,3,5]triazin-4-amine], on CDK9/CycT1, the IC50 is greater than 20000 nM. Also, in assay [1], the DC50 is 57.6 nM and the “(IC50 CDK12 high ATP) to (Degradation DC50 CDK12) ratio” value was greater than 287.
Regarding `OC1(C(F)(F)F)CCN(c2nc(NCc3nc4ccccc4[nH]3)n3ncc(Br)c3n2)C1` (stereo not drawn) [Example 200, 1-[4-(1H-benzimidazol-2-ylmethylamino)-8-bromo-pyrazolo[1,5-a][1,3,5]triazin-2-yl]-3-(trifluoromethyl)pyrrolidin-3-ol], on CDK9/CycT1, the IC50 is greater than 20000 nM. In assay [1], the DC50 is 117 nM and the “(IC50 CDK12 high ATP) to (Degradation DC50 CDK12) ratio” value was 37.
With `C[C@@H]1CN(c2nc(NCc3nc4c(F)cccc4[nH]3)n3ncc(C4CC4)c3n2)C[C@H](C)N1` [Example 186, 8-cyclopropyl-2-[(3R,5S)-3,5-dimethylpiperazin-1-yl]-N-[(4-fluoro-1H-benzimidazol-2-yl)methyl]pyrazolo[1,5-a][1,3,5]triazin-4-amine], the IC50 at CDK9/CycT1 is greater than 20000 nM. In addition, in assay [1], the DC50 worked out at 0.226 nM and the “(IC50 CDK12 high ATP) to (Degradation DC50 CDK12) ratio” value is given as 12018.
On the same counts, the results for `OC[C@@H]1CCCCN1c1nc(NCc2nc3c(F)cccc3[nH]2)n2ncc(C3CC3)c2n1` [Example 189, [(2S)-1-(8-cyclopropyl-4-{[(4-fluoro-1H-benzimidazol-2-yl)methyl]amino}pyrazolo[1,5-a][1,3,5]triazin-2-yl)piperidin-2-yl]methanol] are 2200 nM, 0.557 nM and 20.
On the same counts, the results for `OC[C@@H]1CCCCN1c1nc(NCc2nc3c(F)c(F)ccc3[nH]2)n2ncc(C3CC3)c2n1` [Example 184, [(2S)-1-(8-cyclopropyl-4-{[(4,5-difluoro-1H-benzimidazol-2-yl)methyl]amino}pyrazolo[1,5-a][1,3,5]triazin-2-yl)piperidin-2-yl]methanol] are 1640 nM, 1.75 nM and 8.
On the same counts, the results for `Cc1cc(-c2cnn3c(NCc4nc5ccccc5[nH]4)nc(N4CCN(C)CC4)nc23)ccn1` [Example 243, N-[(1H-benzimidazol-2-yl)methyl]-2-(4-methylpiperazin-1-yl)-8-(2-methylpyridin-4-yl)pyrazolo[1,5-a][1,3,5]triazin-4-amine] are greater than 20000 nM, 267 nM and greater than 75.
As for `Fc1ccc2[nH]c(CNc3nc(N4CCNCC4)nc4c(C5CC5)cnn34)nc2c1F` [Example 174, 8-cyclopropyl-N-[(4,5-difluoro-1H-benzimidazol-2-yl)methyl]-2-(piperazin-1-yl)pyrazolo[1,5-a][1,3,5]triazin-4-amine], the IC50 at CDK9/CycT1 is greater than 20000 nM. Further, in assay [1], the DC50 was determined as 0.645 nM and the “(IC50 CDK12 high ATP) to (Degradation DC50 CDK12) ratio” value turned out to be 1851.
Taken in the same sequence, the figures for `CC1(O)CCN(c2nc(NCc3nc4ccccc4[nH]3)n3ncc(Br)c3n2)C1` (stereo not drawn) [Example 225, 1-[4-(1H-benzimidazol-2-ylmethylamino)-8-bromo-pyrazolo[1,5-a][1,3,5]triazin-2-yl]-3-methyl-pyrrolidin-3-ol] were greater than 20000 nM, 22.1 nM and 466.
Taken in the same sequence, the figures for `CCN(C)c1nc(NCc2nc3ccccc3[nH]2)n2ncc(Br)c2n1` [Example 233, N4-(1H-benzimidazol-2-ylmethyl)-8-bromo-N2-ethyl-N2-methyl-pyrazolo[1,5-a][1,3,5]triazine-2,4-diamine] were greater than 20000 nM, 103 nM and 73.
Consider `COc1cccc2[nH]c(CNc3nc(N4C[C@H]5C[C@@H]4CO5)nc4c(C5CC5)cnn34)nc12` [Example 198, 8-cyclopropyl-N-[(4-methoxy-1H-benzimidazol-2-yl)methyl]-2-[(1R,4R)-2-oxa-5-azabicyclo[2.2.1]heptan-5-yl]pyrazolo[1,5-a][1,3,5]triazin-4-amine], for which the IC50 on CDK9/CycT1 is greater than 20000 nM. In addition, in assay [1], the DC50 stood at 34.9 nM and the “(IC50 CDK12 high ATP) to (Degradation DC50 CDK12) ratio” value came out at 214.
Taken in the same sequence, the figures for `CC1CN(c2nc(NCc3nc4ccccc4[nH]3)n3ncc(C(C)C)c3n2)CCO1` (racemic) [Example 11, (rac)-N-[(1H-benzimidazol-2-yl)methyl]-2-[2-methylmorpholin-4-yl]-8-(propan-2-yl)pyrazolo[1,5-a][1,3,5]triazin-4-amine] were greater than 20000 nM, 12.6 nM and 251.
On the same counts, the results for `CC(C)(O)CNc1nc(NCc2nc3ccccc3[nH]2)n2ncc(Br)c2n1` [Example 229, 1-[(4-{[(1H-benzimidazol-2-yl)methyl]amino}-8-bromopyrazolo[1,5-a][1,3,5]triazin-2-yl)amino]-2-methylpropan-2-ol] are greater than 20000 nM, 6.38 nM and 862.
Taken in the same sequence, the figures for `Fc1ccc2[nH]c(CNc3nc(N4C[C@@H]5C[C@H]4CO5)nc4c(C5CC5)cnn34)nc2c1` [Example 185, 8-cyclopropyl-N-[(5-fluoro-1H-benzimidazol-2-yl)methyl]-2-[(1S,4S)-2-oxa-5-azabicyclo[2.2.1]heptan-5-yl]pyrazolo[1,5-a][1,3,5]triazin-4-amine] were greater than 20000 nM, 2.49 nM and greater than 7872.
`Cc1ccc2[nH]c(CNc3nc(N4C[C@H]5C[C@@H]4CO5)nc4c(Br)cnn34)nc2c1` [Example 192, 8-bromo-N-[(5-methyl-1H-benzimidazol-2-yl)methyl]-2-[(1R,4R)-2-oxa-5-azabicyclo[2.2.1]heptan-5-yl]pyrazolo[1,5-a][1,3,5]triazin-4-amine]: the IC50 on CDK9/CycT1 is greater than 20000 nM. In addition, in assay [1], the DC50 came to 0.56 nM and the “(IC50 CDK12 high ATP) to (Degradation DC50 CDK12) ratio” value was found to be 15180.
Taken in the same sequence, the figures for `Fc1cccc2[nH]c(CNc3nc(N4C[C@@H]5CCCN[C@@H]5C4)nc4c(C5CC5)cnn34)nc12` [Example 187, 8-cyclopropyl-N-[(4-fluoro-1H-benzimidazol-2-yl)methyl]-2-[(4aS,7aS)-octahydro-6H-pyrrolo[3,4-b]pyridin-6-yl]pyrazolo[1,5-a][1,3,5]triazin-4-amine] were greater than 20000 nM, 0.707 nM and 9192.
Taken in the same sequence, the figures for `CCNc1nc(NCc2nc3ccccc3[nH]2)n2ncc(Br)c2n1` [Example 227, N4-(1H-benzimidazol-2-ylmethyl)-8-bromo-N2-ethyl-pyrazolo[1,5-a][1,3,5]triazine-2,4-diamine] were greater than 20000 nM, 16.8 nM and 565.

These data come from patent US20230117034A1, “PYRAZOLOTRIAZINES” (Bayer Aktiengesellschaft, priority 2019, published 2023).
